Consider 35 compounds from patent US10357481B2 (MERCK SHARP & DOHME CORP., priority 2015, dated 2019).

In this assay the target is T1, human PDE2A1 (Homo sapiens, UniProt O00408).
T1 construct: GST; purchased BPS Bioscience (San Diego, Calif.) 60020; host or cells: insect cells
Briefly: IMAP FP PDE selectivity panel, human PDE2A1. The format is biochemical. Particulars: Lab B; read-out: Human PDE2 Ki (nM) Lab B. A digest of the protocol: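 IMAP FP read-out, run at room temperature in parallel with PDE1–11: enzyme at 20% substrate conversion, 50 nM FAM-cAMP containing 1000 nM cGMP, Tris pH 7.2/MgCl2/DTT buffer. Compounds as ten 3-fold dilutions. Reaction 60 min, stopped with binding reagent for 1 h before polarization measurement.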

As a reminder, the Ki is a measure of affinity in units of concentration, obtained from inhibition or displacement.

T1 sequence (O00408 1-920 isoform O00408-2): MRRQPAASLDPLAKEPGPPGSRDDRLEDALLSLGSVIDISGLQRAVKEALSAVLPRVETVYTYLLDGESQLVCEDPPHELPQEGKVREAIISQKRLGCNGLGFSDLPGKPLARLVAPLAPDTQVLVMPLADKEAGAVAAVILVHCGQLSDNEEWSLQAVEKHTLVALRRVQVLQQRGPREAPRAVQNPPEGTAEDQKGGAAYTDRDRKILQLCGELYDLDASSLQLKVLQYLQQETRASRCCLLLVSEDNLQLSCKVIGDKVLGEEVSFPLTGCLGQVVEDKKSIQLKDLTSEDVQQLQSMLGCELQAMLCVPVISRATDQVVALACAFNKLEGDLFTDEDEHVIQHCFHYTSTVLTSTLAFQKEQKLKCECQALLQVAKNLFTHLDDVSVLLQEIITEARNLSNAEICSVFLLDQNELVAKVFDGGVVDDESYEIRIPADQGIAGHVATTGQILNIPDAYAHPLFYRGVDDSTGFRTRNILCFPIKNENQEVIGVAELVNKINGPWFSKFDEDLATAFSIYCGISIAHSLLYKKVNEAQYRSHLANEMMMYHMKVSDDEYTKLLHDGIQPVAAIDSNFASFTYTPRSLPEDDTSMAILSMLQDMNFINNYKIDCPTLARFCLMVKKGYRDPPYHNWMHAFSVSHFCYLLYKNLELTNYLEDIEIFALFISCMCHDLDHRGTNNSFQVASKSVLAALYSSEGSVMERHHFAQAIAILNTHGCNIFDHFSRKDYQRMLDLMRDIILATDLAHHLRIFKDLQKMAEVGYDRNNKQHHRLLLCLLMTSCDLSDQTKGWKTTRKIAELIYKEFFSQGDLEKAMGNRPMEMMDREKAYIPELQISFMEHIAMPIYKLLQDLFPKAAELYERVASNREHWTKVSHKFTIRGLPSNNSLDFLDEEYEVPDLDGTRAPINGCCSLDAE

With `Cc1cc(NC(C)(C)c2ccc(C(F)(F)F)cc2Cl)n2ncnc2n1` [Example 47, N-{1-[2-Chloro-4-(trifluoromethyl)phenyl]-1-methylethyl}-5-methyl [1,2,4]triazolo[1,5-a]pyrimidin-7-amine], the Ki came to 161 nM.

Consider `COc1cc(C(F)(F)F)ccc1C(C)(C)Nc1cc(C)nc2ncnn12` [Example 48, N-{1-[2-Methoxy-4-(trifluoromethyl)phenyl]-1-methylethyl}-5-methyl [1,2,4]triazolo[1,5-a]pyrimidin-7-amine], for which the inhibition constant Ki came to 474 nM.

As to `Cc1cc(NC(C)(C)c2ccc(OC(F)(F)F)cc2)n2ncnc2n1` [Example 49, 5-Methyl-N-{1-methyl-1-[4-(trifluoromethoxy)phenyl]ethyl} [1,2,4]triazolo[1,5-a]pyrimidin-7-amine], the Ki amounted to 301 nM.

As for `Cc1cc(NC(C)(C)c2ccc(SC(F)(F)F)c(F)c2)n2ncnc2n1` [Example 50, N-(1-{3-Fluoro-4-[(trifluoromethyl)sulfanyl]phenyl}-1-methylethyl)-5-methyl[1,2,4]triazolo[1,5-a] pyrimidin-7-amine], the inhibition constant (Ki) amounted to 182 nM.

For `Cc1cc(NC(C)(C)c2ccc(OC(F)(F)F)cc2F)n2ncnc2n1` [Example 51, N-{1-[2-Fluoro-4-(trifluoromethoxy)phenyl]-1-methylethyl}-5-methyl [1,2,4]triazolo[1,5-a]pyrimidin-7-amine], the Ki is 206 nM.

In the case of `Cc1cc(NC(C)(C)c2ccc(C(F)(F)F)cc2F)n2ncnc2n1` [Example 52, N-{1-[2-Fluoro-4-(trifluoromethyl)phenyl]-1-methylethyl}-5-methyl [1,2,4]triazolo[1,5-a]pyrimidin-7-amine], the inhibition constant Ki came out at 78 nM.

In the case of `Cc1cc(NC(C)(C)c2ccc(C(F)(F)F)cc2)n2ncnc2n1` [Example 53, 5-Methyl-N-{1-methyl-1-[4-(trifluoromethyl)phenyl]ethyl} [1,2,4]triazolo[1,5-a]pyrimidin-7-amine], the inhibition constant Ki is 99 nM.

On to `Cc1cc(NC(C)(C)c2ccc(C(F)(F)F)cc2C)n2ncnc2n1` [Example 54, 5-Methyl-N-{1-methyl-1-[2-methyl-4-(trifluoromethyl)phenyl]ethyl}[1,2,4]triazolo[1,5-a] pyrimidin-7-amine], for which the inhibitory constant (Ki) was found to be 342 nM.

As to `Cc1cc(NC(C)(C)c2ccc(SC(F)(F)F)cc2)n2ncnc2n1` [Example 55, 5-Methyl-N-(1-methyl-1-{4-[(trifluoromethyl)sulfanyl]phenyl}ethyl)[1,2,4]triazolo[1,5-a] pyrimidin-7-amine], the Ki came to 211 nM.

As for `Cc1cc(NC2(c3ccc(S(F)(F)(F)(F)F)cc3)CC2)n2ncnc2n1` [Example 58, 5-Methyl-N-{1-[4-(pentafluoro-λ^6-sulfanyl)phenyl]cyclopropyl}[1,2,4] triazolo[1,5-a]pyrimidin-7-amine], the Ki came out at 52 nM.

With `Cc1cc(NC2(c3ccc(SC(F)(F)F)cc3)CC2)n2ncnc2n1` [Example 59, 5-Methyl-N-(1-{4-[(trifluoromethyl)sulfanyl]phenyl}cyclopropyl)[1,2,4]triazolo [1,5-a]pyrimidin-7-amine], the Ki was 72 nM.

For the compound `Cc1cc(NC2(c3ccc(OC(F)(F)F)c(F)c3)CC2)n2ncnc2n1` [Example 60, N-{1-[3-Fluoro-4-(trifluoromethoxy)phenyl]cyclopropyl}5-methyl-[1,2,4]triazolo[1,5-a]pyrimidin-7-amine], the Ki was determined as 32 nM.

`Cc1cc(NC2(c3ccc(C(C)(C)C)cc3)CC2)n2ncnc2n1` [Example 61, N-{1-[4-(tert-Butyl)phenyl]cyclopropyl}5-methyl-[1,2,4]triazolo[1,5-a]pyrimidin-7-amine]: the inhibition constant Ki was 81 nM.

For `Cc1cc(NC2(c3ccc(C(F)(F)F)cc3F)CC2)n2ncnc2n1` [Example 62, N-{1-[2-Fluoro-4-(trifluoromethyl)phenyl]cyclopropyl}5-methyl-[1,2,4]triazolo[1,5-a]pyrimidin-7-amine], the Ki is 162 nM.

On to `Cc1cc(NC2(c3ccc(SC(F)(F)F)c(F)c3)CC2)n2ncnc2n1` [Example 63, N-(1-{3-Fluoro-4-[(trifluoromethyl)sulfanyl]phenyl}cyclopropyl)-5-methyl[1,2,4]triazolo[1,5-a] pyrimidin-7-amine], for which the Ki was found to be 33 nM.

As to `Cc1cc(NC2(c3ccc(C(F)(F)F)cc3)CCC2)n2ncnc2n1` [Example 64, 5-Methyl-N-{1-[4-(trifluoromethyl)phenyl]cyclobutyl}[1,2,4]triazolo [1,5-a]pyrimidin-7-amine], the Ki is 77 nM.

In the case of `Cc1cc(NC2(c3ccc(SC(F)(F)F)cc3)CCC2)n2ncnc2n1` [Example 65, 5-Methyl-N-(1-{4-[(trifluoromethyl)sulfanyl]phenyl}cyclobutyl)[1,2,4] triazolo[1,5-a]pyrimidin-7-amine], the Ki came out at 75 nM.

As to `Cc1cc(NC2(c3ccc(SC(F)(F)F)c(F)c3)CCC2)n2ncnc2n1` [Example 66, N-(1-{3-Fluoro-4-[(trifluoromethyl)sulfanyl]phenyl}cyclobutyl)-5-methyl[1,2,4]triazolo[1,5-a] pyrimidin-7-amine], the Ki stood at 108 nM.

With `Cc1cc(NC2(c3ccc(C(F)(F)F)cc3)CCCC2)n2ncnc2n1` [Example 67, 5-Methyl-N-{1-[4-(trifluoromethyl)phenyl]cyclopentyl}[1,2,4]triazolo [1,5-a]pyrimidin-7-amine], the Ki came to 367 nM.

For `Fc1cc(C2(Nc3cc(C4CC4)nc4ncnn34)CC2)ccc1C(F)(F)F` [Example 70, 5-Cyclopropyl-N-{1-[3-fluoro-4-(trifluoromethyl)phenyl]cyclopropyl}[1,2,4]triazolo[1,5-a]pyrimidin-7-amine], the inhibition constant (Ki) came to 3.7 nM.

For the compound `Fc1cc(C2(Nc3cc(C4CC4)nc4ncnn34)CC2)ccc1OC(F)(F)F` [Example 71, 5-Cyclopropyl-N-{1-[3-fluoro-4-(trifluoromethoxy)phenyl]cyclo-propyl}[1,2,4]triazolo[1,5-a]pyrimidin-7-amine], the Ki was 25 nM.

As for `FS(F)(F)(F)(F)c1ccc(C2(Nc3cc(C4CC4)nc4ncnn34)CC2)cc1` [Example 72, 5-Cyclopropyl-N-{1-[4-(pentafluoro-λ^6-sulfanyl)phenyl]cyclopropyl}[1,2,4] triazolo[1,5-a]pyrimidin-7-amine], the Ki is 26 nM.

In the case of `CC(C)(C)c1cc(NC2(c3ccc(C(F)(F)F)c(F)c3)CC2)n2ncnc2n1` [Example 73], the Ki came to 72 nM.

For the compound `Fc1cc(C2(Nc3cc(C(F)(F)C(F)(F)F)nc4ncnn34)CC2)ccc1C(F)(F)F` [Example 74, N-{1-[3-Fluoro-4-(trifluoromethyl)phenyl]cyclopropyl}-5-(pentafluoroethyl) [1,2,4]triazolo[1,5-a]pyrimidin-7-amine], the Ki was determined as 109 nM.

Regarding `COCc1cc(NC2(c3ccc(C(F)(F)F)c(F)c3)CC2)n2ncnc2n1` [Example 75, N-{1-[3-Fluoro-4-(trifluoromethyl)phenyl]cyclopropyl}-5-(methoxymethyl) [1,2,4]triazolo[1,5-a]pyrimidin-7-amine], the Ki turned out to be 201 nM.

Consider `COCc1cc(N[C@@H](c2ccc(C(F)(F)F)c(F)c2)C(C)(C)C)n2ncnc2n1` [Example 76, N-{(1R)-1-[3-Fluoro-4-(trifluoromethyl)phenyl]-2,2-dimethylpropyl}-5-(methoxymethyl)[1,2,4]triazolo [1,5-a]pyrimidin-7-amine], for which the inhibition constant Ki amounted to 969 nM.

Turning to `COCc1cc(N[C@H](C)c2ccc(C(F)(F)F)c(F)c2)n2ncnc2n1` [Example 77, N-{(1R)-1-[3-Fluoro-4-(trifluoromethyl)phenyl]ethyl}-5-(methoxymethyl)[1,2,4]triazolo [1,5-a]pyrimidin-7-amine], the Ki was around 1180 nM.

Consider `OCc1cc(NC2(c3ccc(C(F)(F)F)c(F)c3)CC2)n2ncnc2n1` [Example 78, [7-({1-[3-Fluoro-4-(trifluoromethyl)phenyl]cyclopropyl}amino)[1,2,4]triazolo[1,5-a]pyrimidin-5-yl]methanol], for which the Ki stood at 92 nM.

In the case of `CC(C)(C)[C@@H](Nc1cc(CO)nc2ncnn12)c1ccc(C(F)(F)F)c(F)c1` [Example 79, [7-({(1R)-1-[3-Fluoro-4-(trifluoromethyl)phenyl]-2,2-dimethylpropyl}amino)[1,2,4]triazolo[1,5-a]pyrimidin-5-yl]methanol], the inhibitory constant (Ki) was found to be 208 nM.

As for `C[C@@H](Nc1cc(CO)nc2ncnn12)c1ccc(C(F)(F)F)c(F)c1` [Example 80, [7-({(1R)-1-[3-Fluoro-4-(trifluoromethyl)phenyl]ethyl}amino)[1,2,4]triazolo[1,5-a]pyrimidin-5-yl]methanol], the inhibition constant Ki amounted to 387 nM.

Regarding `FCc1cc(NC2(c3ccc(C(F)(F)F)c(F)c3)CC2)n2ncnc2n1` [Example 81, 5-(Fluoromethyl)-N-{1-[3-fluoro-4-(trifluoromethyl)phenyl]cyclopropyl}[1,2,4]triazolo[1,5-a]pyrimidin-7-amine], the inhibition constant Ki turned out to be 31 nM.

`Fc1cc(C2(Nc3cc(C(F)(F)F)nc4ncnn34)CC2)ccc1C(F)(F)F` [Example 82, N-{1-[3-Fluoro-4-(trifluoromethyl)phenyl]cyclopropyl}-5-(trifluoromethyl)-[1,2,4]triazolo[1,5-a]pyrimidin-7-amine]: the Ki came to 10 nM.

As for `Cc1nc2ncnn2c(N[C@H](C)c2ccc(C(F)(F)F)cc2)c1C` [Example 85, 5,6-Dimethyl-N-{(1R)-1-[4-(trifluoromethyl)phenyl]ethyl}[1,2,4]triazolo[1,5-a]pyrimidin-7-amine], the inhibition constant Ki was around 1160 nM.

On to `Cc1nc2ncnn2c(N[C@@H](C)c2ccc(C(F)(F)F)cc2)c1C` [Example 86, 5,6-Dimethyl-N-{(1S)-1-[4-(trifluoromethyl)phenyl]ethyl}[1,2,4]triazolo[1,5-a]pyrimidin-7-amine], for which the Ki was around 1750 nM.

Regarding `Cc1nc2ncnn2c(NC2(c3ccc(C(F)(F)F)c(F)c3)CC2)c1C` [Example 87, N-{1-[3-Fluoro-4-(trifluoromethyl)phenyl]cyclopropyl}-5,6-dimethyl[1,2,4]triazolo[1,5-a]pyrimidin-7-amine], the Ki came out at 132 nM.
